Data on 32 compounds can be found in patent publication US20090118332A1, “Therapeutic Agents - 551” (AstraZeneca AB, priority 2006, published 2009).

Usually inhibition stands for the drop in the measured response relative to a control, in per cent.

Molecules are shown by their SMILES.

T1 sequence (P49327 whole entry): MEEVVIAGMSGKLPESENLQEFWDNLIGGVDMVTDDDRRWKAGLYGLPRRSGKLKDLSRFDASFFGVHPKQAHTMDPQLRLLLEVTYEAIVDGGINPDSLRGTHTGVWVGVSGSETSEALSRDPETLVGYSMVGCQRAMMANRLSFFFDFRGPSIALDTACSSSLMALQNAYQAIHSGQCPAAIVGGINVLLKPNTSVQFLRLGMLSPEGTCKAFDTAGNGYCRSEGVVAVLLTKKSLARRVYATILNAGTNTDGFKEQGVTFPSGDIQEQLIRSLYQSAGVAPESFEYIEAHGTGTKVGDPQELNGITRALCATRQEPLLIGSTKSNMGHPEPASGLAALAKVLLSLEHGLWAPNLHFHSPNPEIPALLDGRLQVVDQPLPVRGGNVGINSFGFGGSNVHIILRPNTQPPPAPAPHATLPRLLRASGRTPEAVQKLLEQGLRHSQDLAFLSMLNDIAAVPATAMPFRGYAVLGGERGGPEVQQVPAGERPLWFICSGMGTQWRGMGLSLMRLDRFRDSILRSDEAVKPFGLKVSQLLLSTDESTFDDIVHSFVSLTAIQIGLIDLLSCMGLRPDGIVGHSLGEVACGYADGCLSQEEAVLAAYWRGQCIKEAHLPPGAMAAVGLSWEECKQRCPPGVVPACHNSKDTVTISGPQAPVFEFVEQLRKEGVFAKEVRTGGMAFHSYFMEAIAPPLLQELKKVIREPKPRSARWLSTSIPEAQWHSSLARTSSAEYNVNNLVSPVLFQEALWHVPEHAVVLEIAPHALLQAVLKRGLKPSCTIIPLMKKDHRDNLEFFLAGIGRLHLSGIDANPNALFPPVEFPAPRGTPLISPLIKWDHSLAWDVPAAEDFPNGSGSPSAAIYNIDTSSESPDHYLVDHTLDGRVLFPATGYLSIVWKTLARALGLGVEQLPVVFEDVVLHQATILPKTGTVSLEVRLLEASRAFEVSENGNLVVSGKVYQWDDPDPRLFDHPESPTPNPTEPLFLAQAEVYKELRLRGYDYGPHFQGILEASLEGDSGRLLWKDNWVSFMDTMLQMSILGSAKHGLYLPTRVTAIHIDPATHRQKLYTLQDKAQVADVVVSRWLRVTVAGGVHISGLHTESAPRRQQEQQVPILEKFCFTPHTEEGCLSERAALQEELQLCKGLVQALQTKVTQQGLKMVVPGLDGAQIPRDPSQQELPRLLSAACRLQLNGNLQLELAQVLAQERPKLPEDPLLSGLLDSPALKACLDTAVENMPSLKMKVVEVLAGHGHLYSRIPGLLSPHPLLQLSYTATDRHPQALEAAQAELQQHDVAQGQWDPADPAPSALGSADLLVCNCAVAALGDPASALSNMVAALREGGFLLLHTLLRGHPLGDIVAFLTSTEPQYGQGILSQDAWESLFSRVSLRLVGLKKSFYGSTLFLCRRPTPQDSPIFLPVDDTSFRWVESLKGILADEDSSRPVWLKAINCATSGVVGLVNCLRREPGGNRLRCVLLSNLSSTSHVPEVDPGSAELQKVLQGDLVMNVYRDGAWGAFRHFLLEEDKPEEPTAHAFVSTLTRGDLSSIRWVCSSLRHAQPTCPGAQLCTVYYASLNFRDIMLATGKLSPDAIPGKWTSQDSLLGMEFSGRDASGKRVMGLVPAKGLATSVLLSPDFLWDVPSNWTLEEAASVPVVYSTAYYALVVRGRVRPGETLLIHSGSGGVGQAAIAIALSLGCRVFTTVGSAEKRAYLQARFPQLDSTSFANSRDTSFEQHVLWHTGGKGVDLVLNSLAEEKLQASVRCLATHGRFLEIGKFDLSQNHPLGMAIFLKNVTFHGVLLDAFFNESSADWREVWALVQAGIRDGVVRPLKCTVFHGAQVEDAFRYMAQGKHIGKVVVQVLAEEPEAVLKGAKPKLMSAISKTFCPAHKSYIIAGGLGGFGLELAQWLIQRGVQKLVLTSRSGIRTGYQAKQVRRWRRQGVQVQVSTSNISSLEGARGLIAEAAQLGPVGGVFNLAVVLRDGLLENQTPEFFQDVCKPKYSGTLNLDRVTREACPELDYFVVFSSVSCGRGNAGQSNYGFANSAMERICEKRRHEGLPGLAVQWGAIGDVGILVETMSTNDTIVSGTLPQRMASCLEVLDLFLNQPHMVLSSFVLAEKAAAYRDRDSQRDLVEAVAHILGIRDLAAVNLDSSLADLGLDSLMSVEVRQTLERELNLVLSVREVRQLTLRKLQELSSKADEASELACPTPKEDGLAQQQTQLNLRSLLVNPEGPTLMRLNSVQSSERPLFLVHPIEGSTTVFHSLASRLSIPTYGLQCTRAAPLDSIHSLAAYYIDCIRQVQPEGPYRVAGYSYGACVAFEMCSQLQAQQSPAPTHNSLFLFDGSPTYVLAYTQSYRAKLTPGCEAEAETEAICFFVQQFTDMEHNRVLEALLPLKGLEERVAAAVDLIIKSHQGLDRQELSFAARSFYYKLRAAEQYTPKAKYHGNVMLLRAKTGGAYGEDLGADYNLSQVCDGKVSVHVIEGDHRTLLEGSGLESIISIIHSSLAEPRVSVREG

The first assay concerns the target T1, human Fatty Acid Synthase (Homo sapiens, UniProt P49327).
T1 construct: made in house
The experiment in a line: Human FAS enzyme assay (decrease in NADPH fluorescence). The assay is classed as biochemical. To be noted: % inhibition at a concentration of 100 μmolar. In outline: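 In-house human FAS was preincubated with compound and NADPH for 15 min at room temperature in 0.1 M Tris pH 7.5 with EDTA, glutathione and BSA. Malonyl CoA and acetyl CoA (500 μM and 150 μM in the added mix) were then added for 60 min. IC50 came from time-zero-subtracted NADPH fluorescence (340/460 nm).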
Take `Cc1ccc(C(=O)N2CCC(c3ccc(C#N)cc3)CC2)cc1NC(=O)NCCCN1CCCC(C)C1` (centres unmarked) [Example 100, 1-[5-[4-(4-cyanophenyl)piperidine-1-carbonyl]-2-methyl-phenyl]-3-[3-(3-methyl-1-piperidyl)propyl]urea]: the inhibition at 100 µM turned out to be 77.8%.

For `Cc1ccc(C(=O)N2CCC(c3ccc(C#N)cc3)CC2)cc1NC(=O)NCCC(=O)NC(C)C` [Example 129, 3-[[5-[4-(4-cyanophenyl)piperidine-1-carbonyl]-2-methyl-phenyl]carbamoylamino]-N-propan-2-yl-propanamide], the inhibition at 100 µM stood at 99.1%. The same measure, in the same setting: the same measure for `Cc1ccc(C(=O)N2CCC(c3ccc(C#N)cc3)CC2)cc1NC(=O)NCCc1cccc(F)c1` [Example 68, 1-[5-[4-(4-cyanophenyl)piperidine-1-carbonyl]-2-methyl-phenyl]-3-[2-(3-fluorophenyl)ethyl]urea]: 102%; for `Cc1ccc(C(=O)N2CCC(c3ccc(F)cc3)CC2)cc1NC(=O)NCCN(C)C(=O)OC(C)(C)C` [Example 347, tert-butyl N-[2-[[5-[4-(4-fluorophenyl)piperidine-1-carbonyl]-2-methyl-phenyl]carbamoylamino]ethyl]-N-methyl-carbamate]: 86.3%; for `Cc1ccc(C(=O)N2CCC(c3ccc(C#N)cc3)CC2)cc1NC(=O)NCCNC(=O)c1ccccn1` [Example 91, N-[2-[[5-[4-(4-cyanophenyl)piperidine-1-carbonyl]-2-methyl-phenyl]carbamoylamino]ethyl]pyridine-2-carboxamide]: 95.9%.

`Cc1ccc(C(=O)N2CCC(c3ccc(C#N)cc3)CC2)cc1NC(=O)NCC(O)COc1ccccc1Cl` (centres unmarked) [Example 196, 3-[3-(2-chlorophenoxy)-2-hydroxy-propyl]-1-[5-[4-(4-cyanophenyl)piperidine-1-carbonyl]-2-methyl-phenyl]urea]: the inhibition at 100 µM came out at 91.7%. The same measure, in the same setting: the value for `CC(C)NC(=O)Nc1ccc(F)c(C(=O)N2CCC(c3ccc(C#N)cc3)CC2)c1` [Example 377, 3-[3-[4-(4-cyanophenyl)piperidine-1-carbonyl]-4-fluorophenyl]-1-propan-2-ylurea] was 71.1%. The same measure, in the same setting: the value for `CCOCCCNC(=O)Nc1cc(C(=O)N2CCC(c3ccc(C#N)cc3)CC2)ccc1C` [Example 158, 3-[5-[4-(4-cyanophenyl)piperidine-1-carbonyl]-2-methyl-phenyl]-1-(3-ethoxypropyl)urea] was 89.1%; that for `Cc1ccc(C(=O)N2CCC(O)(c3ccc(C#N)cc3)CC2)cc1NC(=O)NC(C)C` [Example 50, 1-[5-[4-(4-cyanophenyl)-4-hydroxy-piperidine-1-carbonyl]-2-methyl-phenyl]-3-propan-2-yl-urea] was 81.2%. Regarding `Cc1ccc(C(=O)N2CCC(c3ccc(C#N)cc3)CC2)cc1NC(=O)NCCNC(=O)C1CCCCC1` [Example 175, N-[2-[[5-[4-(4-cyanophenyl)piperidine-1-carbonyl]-2-methyl-phenyl]carbamoylamino]ethyl]cyclohexanecarboxamide], the inhibition at 100 µM came out at 96.1%. Same read-out and setting: the same measure for `Cc1ccc(C(=O)N2CCC(c3ccc(C#N)cc3)CC2)cc1NC(=O)NC(C)(C)CNC(=O)c1cccnc1` [Example 93, N-[2-[[5-[4-(4-cyanophenyl)piperidine-1-carbonyl]-2-methyl-phenyl]carbamoylamino]-2-methyl-propyl]pyridine-3-carboxamide]: 90.1%; for `Cc1ccc(C(=O)N2CCC(c3ccc(C#N)cc3)CC2)cc1NC(=O)NC(C)c1ccccn1` (centres unmarked) [Example 368, 1-[5-[4-(4-cyanophenyl)piperidine-1-carbonyl]-2-methylphenyl]-3-(1-pyridin-2-ylethyl)urea]: 110%; for `Cc1ccc(C(=O)N2CCC(c3ccc(C#N)cc3)CC2)cc1NC(=O)NCCNC(=O)C(C)C` [Example 112, N-[2-[[5-[4-(4-cyanophenyl)piperidine-1-carbonyl]-2-methyl-phenyl]carbamoylamino]ethyl]-2-methyl-propanamide]: 94.3%. The same measure, in the same setting: the value for `Cc1ccc(C(=O)N2CCC(c3ccc(C#N)cc3)CC2)cc1NC(=O)NCc1cc[nH]n1` [Example 289, 1-[5-[4-(4-cyanophenyl)piperidine-1-carbonyl]-2-methyl-phenyl]-3-(1H-pyrazol-3-ylmethyl)urea] was 91.2%. The same measure, in the same setting: the value for `Cc1ccc(C(=O)N2CCC(c3ccc(C#N)cc3)CC2)cc1NC(=O)NCCNC(=O)CC(=O)O` [Example 104A, 2-[2-[[5-[4-(4-cyanophenyl)piperidine-1-carbonyl]-2-methyl-phenyl]carbamoylamino]ethylcarbamoyl]acetic acid] was 79%; that for `Cc1ccc(C(=O)N2CCC(c3ccc(S(N)(=O)=O)cc3)CC2)cc1NC(=O)NC(C)C` [Example 360, 1-[2-methyl-5-[4-(4-sulfamoylphenyl)piperidine-1-carbonyl]phenyl]-3-propan-2-yl-urea] was 97.3%; that for `CCc1ccc(C(=O)N2CCC(c3ccc(C#N)cc3)CC2)cc1NC(=O)NC1COC1` [Example 298, 1-[5-[4-(4-cyanophenyl)piperidine-1-carbonyl]-2-ethyl-phenyl]-3-(oxetan-3-yl)urea] was 95.8%.

For the compound `Cc1ccc(C(=O)N2CCC(c3ccc(C#N)cc3)CC2)cc1NC(=O)N(C)Cc1ccccc1` [Example 381, 1-benzyl-3-[5-[4-(4-cyanophenyl)piperidine-1-carbonyl]-2-methylphenyl]-1-methylurea], the inhibition at 100 µM amounted to 71.1%. In the case of `Cc1ccc(C(=O)N2CCC(c3ccc(C#N)cc3)CC2)cc1NC(=O)NCCCNC(=O)OC(C)(C)C` [Example 206, tert-butyl N-[3-[[5-[4-(4-cyanophenyl)piperidine-1-carbonyl]-2-methyl-phenyl]carbamoylamino]propyl]carbamate], the inhibition at 100 µM was determined as 83.8%. `COc1ccc(C(=O)N2CCC(c3ccc(C#N)cc3)CC2)cc1NC(=O)NC(C)C` [Example 6, 1-[5-[4-(4-cyanophenyl)piperidine-1-carbonyl]-2-methoxy-phenyl]-3-propan-2-yl-urea]: the inhibition at 100 µM was 79.6%. Turning to `Cc1ccc(NC(=O)NCCc2ccccc2)cc1C(=O)N1CCC(c2ccc(C#N)cc2)CC1` [Example 26, 1-[3-[4-(4-cyanophenyl)piperidine-1-carbonyl]-4-methyl-phenyl]-3-phenethyl-urea], the inhibition at 100 µM was determined as 82.9%. Consider `Cc1ccc(C(=O)N2CCC(c3ccc(C#N)cc3)CC2)cc1NC(=O)NCC(=O)O` [Example 408, 2-[[5-[4-(4-cyanophenyl)piperidine-1-carbonyl]-2-methylphenyl]carbamoylamino]acetic acid], for which the inhibition at 100 µM was found to be 95.7%. Still for that read-out and setting: the value for `CCOC(=O)N1CCN(C(=O)Nc2cc(C(=O)N3CCC(c4ccc(C#N)cc4)CC3)ccc2C)CC1` [Example 330, Ethyl 4-[[5-[4-(4-cyanophenyl)piperidine-1-carbonyl]-2-methyl-phenyl]carbamoyl]piperazine-1-carboxylate] was 82.4%; that for `Cc1ccc(C(=O)N2CCC(c3ccc(C#N)cc3)CC2)cc1NC(=O)NC1CNC1` [Example 300, 3-(azetidin-3-yl)-1-[5-[4-(4-cyanophenyl)piperidine-1-carbonyl]-2-methyl-phenyl]urea] was 84.3%. As for `Cc1ccc(NC(=O)NCC2CCOCC2)cc1C(=O)N1CCC(c2ccc(C#N)cc2)CC1` [Example 27, 1-[3-[4-(4-cyanophenyl)piperidine-1-carbonyl]-4-methyl-phenyl]-3-(oxan-4-ylmethyl)urea], the inhibition at 100 µM was determined as 80.7%. Same read-out and setting: the value for `Cc1ccc(C(=O)N2CCC(c3ccc(C#N)cc3)CC2)cc1NC(=O)N[C@H]1CCCC[C@H]1NS(C)(=O)=O` (relative stereo) [Example 307, 1-[5-[4-(4-cyanophenyl)piperidine-1-carbonyl]-2-methyl-phenyl]-3-[(cis)-2-methanesulfonamidocyclohexyl]urea] was 96.1%; that for `Cc1ccc(C(=O)N2CCC(c3ccc(C#N)cc3)CC2)cc1NC(=O)NCCc1ccccc1` [Example 16, 1-[5-[4-(4-cyanophenyl)piperidine-1-carbonyl]-2-methyl-phenyl]-3-phenethyl-urea] was 98.3%; that for `Cc1ccc(C(=O)N2CCC(c3ccc(C#N)cc3)CC2)cc1NC(=O)NCc1ccc(C#N)cc1` [Example 33, 3-[(4-cyanophenyl)methyl]-1-[5-[4-(4-cyanophenyl)piperidine-1-carbonyl]-2-methyl-phenyl]urea] was 91.8%. The same measure, in the same setting: the value for `CCC(CC)NC(=O)Nc1cc(C(=O)N2CCC(c3ccc(C#N)cc3)CC2)ccc1C` [Example 53, 3-[5-[4-(4-cyanophenyl)piperidine-1-carbonyl]-2-methyl-phenyl]-1-pentan-3-yl-urea] was 90.8%.

Still in this assay, the particulars now being: FAS enzyme assay, IC50 from fitted sigmoid curves.
On to `COc1ccccc1C1CCN(C(=O)c2ccc(C)c(NC(=O)NC(C)C)c2)CC1` [1-[5-[4-(2-methoxyphenyl)piperidine-1-carbonyl]-2-methylphenyl]-3-propan-2-ylurea], for which the “IC50, inhibition of human Fatty Acid Synthase” value is “do not have IC50s in the range of about 0.001 μM to about 30 μM”. Same read-out and setting: the same measure for `COC(=O)[C@H](CCc1nnn[nH]1)NC(=O)Nc1cc(C(=O)N2CCC(c3ccc(C#N)cc3)CC2)ccc1C` [Methyl (2S)-2-[[5-[4-(4-cyanophenyl)piperidine-1-carbonyl]-2-methylphenyl]carbamoylamino]-4-(1H-tetrazol-5-yl)butanoate]: “do not have IC50s in the range of about 0.001 μM to about 30 μM”; for `CC(C)NC(=O)Nc1ccc(S(C)(=O)=O)c(C(=O)N2CCC(c3ccc(C#N)cc3)CC2)c1` [3-[3-[4-(4-cyanophenyl)piperidine-1-carbonyl]-4-methylsulfonylphenyl]-1-propan-2-ylurea]: “do not have IC50s in the range of about 0.001 μM to about 30 μM”.
